Here are results for 20 compounds from patent US12622917B2, “High-activity Wnt pathway inhibitor compound” (ADLAI NORTYE BIOPHARMA CO., LTD., priority 2020, dated 2026).

A value given as a limit tells only on which side of the number the result lay.

In experiment [1] the test system is Colo205-LUC-TCF/LEF M1 reporter cell line (Wnt pathway). Description: Colo205-LUC-TCF/LEF M1 reporter gene (luciferase) inhibition. Type of experiment: cell-based. As to conditions: 4 hours incubation, luciferase readout. Summed up:
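Luminescent readout of TCF/LEF-regulated luciferase after a 4 h, 37° C compound exposure in a stable Colo205 reporter clone (10,000 cells/well). Serial 3-fold dilutions started at 20 uM; IC50 derived using DMSO-treated cells and no-cell wells as controls.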
A general note: In a reporter assay the amount or activity of a reporter protein is the signal.

The subject of another experiment is Colo205. The experiment in a line: Proliferation inhibition, Wnt mutant cell line Colo205. As to conditions: Homo sapiens, COLO 205; Colo205, Wnt pathway-dependent, 96 hours; read-out: Antiproliferative IC50 Colo205. It counts as cell-based. The procedure, abridged: (§1)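 Log-phase cells are plated (1000 per well) and allowed to settle for 20-24 h at 37° C. Compound is added in 3-fold steps, highest final concentration 20 uM, and growth continues for 96 hours before a Promega viability measurement, from which the IC50 is obtained.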

For the next experiment, the system named is DU4475. Description: Proliferation inhibition, Wnt mutant cell line DU4475. The settings on record: Homo sapiens, DU-4475; DU4475, Wnt pathway-dependent, 96 hours; read-out: Antiproliferative IC50 DU4475. Type of experiment: cell-based. From the text: The cell lines used in the experiment are Colo205 and DU4475 cell lines whose Wnt pathway is continuously activated and whose proliferation is Wnt pathway-dependent; while the BELA and RKO cell lines, whose Wnt pathway is not activated under normal circumstances and the proliferation is independent of Wnt pathway, as control cell lines. It is Judged that the inhibitory effect of the compound of the present invention on Wnt-dependent proliferation is not caused by other non-specific toxicity.
Treat the Colo205, Du4475, HELA and RKO cell lines cultured in their respective mediums in the logarithmic growth phase, collect the cells and prepare a uniform cell suspension of known concentration, and then add it to the 96-well cell culture plate Cell suspension, so that each well contains 1000 cells. Put it into a 5% CO2 incubator and incubate at 37° C. for 20-24 h. On the second day, the fully dissolved, 3-fold serially diluted compound was added to each cell culture well, so that the final maximum concentration in the cell culture well was 20 uM, and the culture was continued for 96 hours. In this test, Promega's cell viability detection test is used for detection. The more the cells proliferate, the stronger the final signal intensity will be. The detection instrument is SpectraMax, full wavelength mode. The wells only added with DMSO were used as positive control wells, and the wells that were not inoculated with cells were used as negative control wells. […] The IC50 value of cell proliferation inhibition was used to evaluate the inhibitory effect of the compound on the Wnt pathway and the toxic effect on normal cells (Table 2).

In the next experiment the test system is RKO. The experiment in a line: Proliferation inhibition, non-Wnt mutant control cell line RKO. Type of experiment: cell-based. The settings on record: Homo sapiens, Wnt-independent control cell line, 96 hours, read-out: Antiproliferative IC50 RKO. Summed up: as §1
The next experiment relates to NCI-H929. Description: Proliferation inhibition, NCI-H929 cell line. Type of experiment: cell-based, human. The settings on record: Homo sapiens; NCI-H929 cells, 96 hours culture, cell viability detection; read-out: Antiproliferative IC50 NCI-H929. From the text: (§2) The cell lines used in the test are NCI-H929 and HepG2 cell lines whose Wnt pathway is continuously activated and whose proliferation is Wnt pathway-dependent; the inhibitory effect of the compound of the present invention on Wnt-dependent proliferation is judged.
(§3) Treat the NCI-H929 and HepG2 cell lines cultured in their respective mediums in the logarithmic growth phase, collect the cells and prepare a uniform cell suspension of known concentration, and then add the cell suspension to the 96-well cell culture plate solution so that each well contains 4000 cells. Put it into a […] incubator and incubate at 37° C. for 20-24 h. On the second day, the fully dissolved, 3-fold serially diluted compound was added to each cell culture well, so that the final maximum concentration in the cell culture well was 20 uM, and the culture was continued for 96 hours. In this test, Promega's cell viability detection test is used for detection. The more the cells proliferate, the stronger the final signal intensity will be. The detection instrument is SpectraMax, full wavelength mode. The wells only added with DMSO were used as positive control wells, and the wells that were not inoculated with cells were used as negative control wells. […] The IC50 value of cell proliferation inhibition was used to evaluate the inhibitory effect of the compound on the Wnt pathway and the toxic effect on normal cells (Table 3).

The next experiment concerns HepG2. Description: Proliferation inhibition, HepG2 cell line. Type of experiment: cell-based. As to conditions: Homo sapiens; HepG2 cells, 96 hours culture, cell viability detection; read-out: Antiproliferative IC50 HepG2.
Text: as §2, §3

The IC50 is the concentration at which inhibition is half-maximal. Turning to `[2H]C([2H])([2H])N1c2nc(NCc3ccc(Oc4cnc(C(F)(F)F)nc4)nc3)nc3c2N(CCC3)C(=O)[C@@H]1C1CC1` [165 (W286)], the IC50 is 14 nM in experiment [1]; 12 nM in the experiment on Colo205; 0.6 nM in the experiment with DU4475; more than 10000 nM with RKO; 31 nM in the experiment on NCI-H929; 11 nM in the experiment with HepG2.
Consider `CN1c2nc(NCc3ccc(Oc4cnc(C(F)(F)F)nc4)nc3)nc3c2N(CCC3)C(=O)[C@@H]1c1ccccc1` [172 (W305)], for which the IC50 is 20 nM in experiment [1]; 17.4 nM in the experiment with Colo205; 5.8 nM with DU4475; more than 10000 nM in the experiment on RKO; 89 nM in the experiment on NCI-H929; 26 nM in the experiment with HepG2.
As for `[2H]C([2H])([2H])N1c2nc(NCc3ccc(Oc4cnc(C(F)(F)F)nc4)nc3)nc3c2N(CCC3)C(=O)[C@@H]1CC(F)(F)F` [193 (W342)], the IC50 in experiment [1] was 4 nM; with Colo205, 1.4 nM; with DU4475, less than 0.5 nM; in the experiment on RKO, more than 10000 nM; in the experiment on NCI-H929 it was 24 nM; in the experiment with HepG2, 1.2 nM.
In the case of `CN1c2nc(NCc3ccc(Oc4ccc(C(F)(F)F)nc4)nc3)nc3c2N(CCC3)C(=O)[C@@H]1C1CC1` [120 (W265)], the IC50 in experiment [1] is 15 nM; in the experiment with Colo205, 7.8 nM; in the experiment with DU4475, 0.5 nM; in the experiment on RKO it was more than 10000 nM; in the experiment on NCI-H929, 55 nM; with HepG2, 18 nM.
For the compound `CN1c2nc(NCc3ccc(Oc4cnc(C(F)(F)F)nc4)nc3)nc3c2N(CCC3)C(=O)[C@@H]1CF` [150 (W301)], the IC50 is 25 nM in experiment [1]; 24 nM in the experiment on Colo205; 12 nM with DU4475; more than 10000 nM with RKO; 62 nM with NCI-H929; 19 nM with HepG2.
For the compound `C[C@H](F)[C@H]1C(=O)N2CCCc3nc(NCc4ccc(Oc5ccc(C(F)(F)F)nc5)nc4)nc(c32)N1C` [126 (W308), (R)-5-((S)-1-fluoroethyl)-4-methyl-2-(((6-((6-(trifluoromethyl)pyridin-3-yl)oxo)pyridine-3-yl)methyl)amino)-4,5,9,10-tetrahydro-6H,8H-pyrido[3,2,1-de]pteridin-6-one], the IC50 in experiment [1] is 10 nM; with Colo205 it was 9.1 nM; in the experiment on DU4475, less than 0.5 nM; in the experiment with RKO, more than 10000 nM; in the experiment with NCI-H929, 39 nM; in the experiment with HepG2, 2.7 nM.
`CCN1c2nc(NCc3ccc(Oc4cc(C(F)(F)F)nn4C)nc3)nc3c2N(CCC3)C(=O)[C@@H]1C` [153 (W293)]: the IC50 was 15 nM in experiment [1]; 21 nM with Colo205; 3.9 nM in the experiment on DU4475; more than 10000 nM with RKO; 37 nM in the experiment with NCI-H929; 19 nM in the experiment with HepG2.
In the case of `[2H]C([2H])([2H])N1c2nc(NCc3ccc(Oc4ccc(C(F)(F)F)nc4)nc3)nc3c2N(CCC3)C(=O)[C@@H]1CC(F)F` [163 (W325)], the half-maximal inhibitory concentration (IC50) in experiment [1] was 16 nM; in the experiment with Colo205 it was 5 nM; in the experiment with DU4475, 4.7 nM; in the experiment on RKO, more than 10000 nM; in the experiment with NCI-H929, 31 nM; with HepG2, 7 nM.
Take `CN1c2nc(NCc3ccc(Oc4cnc(C(F)(F)F)nc4)nc3)nc3c2N(CCC3)C(=O)C1(C)C` [177 (W297)]: the IC50 is 21 nM in experiment [1]; 16.1 nM with Colo205; 1.2 nM with DU4475; more than 10000 nM in the experiment with RKO; 56 nM with NCI-H929; 25 nM in the experiment on HepG2.
Consider `[2H]C([2H])([2H])N1c2nc(NCc3ccc(Oc4ccc(C(F)(F)F)nc4)nc3)nc3c2N(CCC3)C(=O)[C@@H]1CC(F)(F)F` [196 (W344)], for which the IC50 is 7 nM in experiment [1]; 1.4 nM with Colo205; less than 0.5 nM with DU4475; more than 10000 nM with RKO; 54 nM with NCI-H929; 1.2 nM in the experiment on HepG2.
As to `CN1c2nc(NCc3ccc(Oc4cnc(C(F)(F)F)nc4)nc3)nc3c2N(CCC3)C(=O)[C@@H]1C1CC1` [167 (W289)], the IC50 in experiment [1] was 12 nM; in the experiment with Colo205 it was 6 nM; in the experiment on DU4475 it was 0.6 nM; in the experiment with RKO it was more than 10000 nM; in the experiment with NCI-H929, 28 nM; with HepG2, 6.8 nM.
Regarding `C[C@@H](F)[C@H]1C(=O)N2CCCc3nc(NCc4ccc(Oc5ccc(C(F)(F)F)nc5)nc4)nc(c32)N1C` [149 (W285)], the IC50 in experiment [1] is 16 nM; in the experiment with Colo205 it was 15 nM; in the experiment on DU4475, 2.9 nM; in the experiment on RKO, more than 10000 nM; with NCI-H929 it was 41 nM; with HepG2, 11 nM.
As to `CN1c2nc(NCc3ccc(Oc4cnc(C(F)(F)F)nc4)nc3)nc3c2N(CCC3)C(=O)[C@@H]1C(C)(C)F` [151 (W332)], the IC50 in experiment [1] is 50 nM; with Colo205 it was 11 nM; with DU4475, 13 nM; in the experiment on RKO, more than 10000 nM; in the experiment with NCI-H929, 26 nM; in the experiment on HepG2 it was 9.8 nM.
Regarding `COC[C@@]1(C)C(=O)N2CCCc3nc(NCc4ccc(Oc5cnc(C(F)(F)F)nc5)nc4)nc(c32)N1C` [180 (W386)], the IC50 in experiment [1] was 23 nM; in the experiment with Colo205 it was 14.6 nM; with RKO, more than 10000 nM; in the experiment with NCI-H929, 82 nM; with HepG2, 40 nM.
Regarding `[2H]C([2H])([2H])OC[C@@]1(C)C(=O)N2CCCc3nc(NCc4ccc(Oc5cnc(C(F)(F)F)nc5)nc4)nc(c32)N1C([2H])([2H])[2H]` [181 (W396)], the IC50 in experiment [1] was 18 nM; in the experiment on Colo205, 11.9 nM; in the experiment on RKO, more than 10000 nM; in the experiment with NCI-H929, 25 nM; in the experiment on HepG2, 81 nM.
Regarding `CN1c2nc(NCc3ccc(Oc4cc(C(F)(F)F)nn4C4CC4)nc3)nc3c2N(CCC3)C(=O)[C@]1(C)CO` [203 (W372)], the IC50 in experiment [1] was 21 nM; in the experiment on Colo205, 9.3 nM; in the experiment with RKO it was more than 10000 nM; in the experiment on NCI-H929, 95 nM; in the experiment with HepG2, 8.2 nM.
The like results for `C[C@H]1C(=O)N2CCCc3nc(NCc4ccc(Oc5cc(C(F)(F)F)nn5C5CC5)nc4)nc(c32)N1C` [130 (W354), (S)-2-(((6-((1-cyclopropyl-3-(trifluoromethyl)-1H-pyrazol-5-yl)oxo)pyridin-3-yl)methyl)amino)-4,5-dimethyl-4,5,9,10-tetrahydro-6H,8H-pyrido[3,2,1-de]pteridin-6-one] were, in that order, less than 0.5 nM, less than 0.5 nM, more than 10000 nM, 19 nM and less than 0.5 nM.
Consider `CCn1nc(C(F)(F)F)cc1Oc1ccc(CNc2nc3c4c(n2)N(C)[C@@H](C)C(=O)N4CCC3)cn1` [152 (W336)], for which the IC50 was 4 nM in experiment [1]; 2.7 nM in the experiment on Colo205; more than 10000 nM in the experiment on RKO; 36 nM in the experiment on NCI-H929; 4.4 nM with HepG2.
For `CN1c2nc(NCc3ccc(Oc4cnc(C(F)(F)F)nc4)nc3)nc3c2N(CCC3)C(=O)[C@@H]1C(C)(C)C` [160 (W362)], in that order: 3 nM, less than 0.5 nM, 7150 nM, 48 nM and 3.5 nM.
Take `CCn1nc(C(F)(F)F)cc1Oc1ccc(CNc2nc3c4c(n2)N(C)[C@@H](COC)C(=O)N4CCC3)cn1` [202 (W361)]: the concentration for half-maximal inhibition (IC50) in experiment [1] is 4 nM; in the experiment with Colo205, 5 nM; in the experiment on RKO, more than 10000 nM; in the experiment on NCI-H929, 50 nM; in the experiment with HepG2, 10 nM.
